Tests used:
Assay type in all cases: toxicity, cell-based
U2OS = assay: Incucyte cell viability with U2OS; settings: human, 10 µM, compound concentration 10 uM
HEK-293T = assay: Incucyte cell viability with HEK293T; settings: human, 10 µM, compound concentration 10 uM
Fibroblast = assay: Incucyte cell viability with human fibroblast; settings: 10 µM, compound concentration 10 uM
[1] = 0 h, replicate number 1, timepoint 0 hours
[2] = 0 h, replicate number 2, timepoint 0 hours
[3] = 6 h, replicate number 1, timepoint 6 hours
[4] = 12 h, replicate number 1, timepoint 12 hours
[5] = 12 h, replicate number 2, timepoint 12 hours
[6] = 18 h, replicate number 1, timepoint 18 hours
[7] = 24 h, replicate number 1, timepoint 24 hours
[8] = 6 h, replicate number 2, timepoint 6 hours
[9] = 18 h, replicate number 2, timepoint 18 hours
[10] = 24 h, replicate number 2, timepoint 24 hours
Also: filed as whole numbers so only -1 and 0 and 1 occur.

For `CC[C@H](CO)Nc1nc(NCc2ccccc2)c2ncn(C(C)C)c2n1` [SELICICLIB], the “Growth Rate” value (U2OS; [1]) was 1, the “Growth Rate” value (U2OS; [2]) was 0 and the “Growth Rate” value (U2OS; [3]) was 0. For the same molecule, the “Growth Rate” value (U2OS; [4]) was 0, the “Growth Rate” value (U2OS; [5]) was 1 and the “Growth Rate” value (U2OS; [6]) was 0. For the same molecule, the “Growth Rate” value (U2OS; [7]) was 0, the “Growth Rate” value (HEK-293T; [1]) was 0 and the “Growth Rate” value (HEK-293T; [2]) was 1. For the same molecule, the “Growth Rate” value (HEK-293T; [8]) was 0, the “Growth Rate” value (HEK-293T; [5]) was 0 and the “Growth Rate” value (HEK-293T; [6]) was 1. The “Growth Rate” value (HEK-293T; [7]) was 0, the “Growth Rate” value (Fibroblast; [2]) was 0 and the “Growth Rate” value (Fibroblast; [3]) was 0. The “Growth Rate” value (Fibroblast; [4]) was 0, the “Growth Rate” value (Fibroblast; [6]) was 0 and the “Growth Rate” value (Fibroblast; [7]) was 0.
In the case of `Cc1cnc(Nc2ccc(F)cc2Cl)nc1-c1c[nH]c(C(=O)N[C@H](CO)c2cccc(Cl)c2)c1`, the “Growth Rate” value (U2OS; [1]) is reported as 0, the “Growth Rate” value (U2OS; [2]) is reported as 1 and the “Growth Rate” value (U2OS; [3]) is reported as 0. For the same molecule, the “Growth Rate” value (U2OS; [4]) was 0, the “Growth Rate” value (U2OS; [6]) was 0 and the “Growth Rate” value (U2OS; [7]) was 0. For the same molecule, the “Growth Rate” value (HEK-293T; [1]) was 0, the “Growth Rate” value (HEK-293T; [3]) was 0 and the “Growth Rate” value (HEK-293T; [4]) was 0. The “Growth Rate” value (HEK-293T; [6]) was 0, the “Growth Rate” value (HEK-293T; [7]) was 0 and the “Growth Rate” value (Fibroblast; [2]) was 0. The “Growth Rate” value (Fibroblast; [3]) was 0, the “Growth Rate” value (Fibroblast; [4]) was 1 and the “Growth Rate” value (Fibroblast; [6]) was 0. For the same molecule, the “Growth Rate” value (Fibroblast; [9]) was 1, the “Growth Rate” value (Fibroblast; [7]) was 0 and the “Growth Rate” value (Fibroblast; [10]) was 1.
`Cl.O=C(O)Cc1cccc(OCCCN(Cc2cccc(C(F)(F)F)c2Cl)CC(c2ccccc2)c2ccccc2)c1` was tested, and the “Growth Rate” value (U2OS; [1]) was 0, the “Growth Rate” value (U2OS; [8]) was 0 and the “Growth Rate” value (U2OS; [4]) was 0. The “Growth Rate” value (U2OS; [6]) was 0, the “Growth Rate” value (U2OS; [9]) was 1 and the “Growth Rate” value (U2OS; [7]) was 1. The “Growth Rate” value (HEK-293T; [1]) was 0, the “Growth Rate” value (HEK-293T; [3]) was 1 and the “Growth Rate” value (HEK-293T; [4]) was 1. For the same molecule, the “Growth Rate” value (HEK-293T; [5]) was 0, the “Growth Rate” value (HEK-293T; [6]) was 0 and the “Growth Rate” value (HEK-293T; [7]) was 0. For the same molecule, the “Growth Rate” value (Fibroblast; [1]) was 0, the “Growth Rate” value (Fibroblast; [3]) was 1 and the “Growth Rate” value (Fibroblast; [8]) was 0. The “Growth Rate” value (Fibroblast; [4]) was 1, the “Growth Rate” value (Fibroblast; [5]) was 0 and the “Growth Rate” value (Fibroblast; [6]) was 1. For the same molecule, the “Growth Rate” value (Fibroblast; [9]) was 0 and the “Growth Rate” value (Fibroblast; [7]) was 0.
With `FC(F)(F)c1cccc(-c2noc(-c3cc(-c4ccccc4)c(C(F)(F)F)s3)n2)c1` the “Growth Rate” value (U2OS; [1]) was 1, the “Growth Rate” value (U2OS; [2]) was 0 and the “Growth Rate” value (U2OS; [3]) was 1. The “Growth Rate” value (U2OS; [4]) was 1, the “Growth Rate” value (U2OS; [5]) was 0 and the “Growth Rate” value (U2OS; [6]) was 1. For the same molecule, the “Growth Rate” value (U2OS; [9]) was 0, the “Growth Rate” value (U2OS; [7]) was 1 and the “Growth Rate” value (HEK-293T; [1]) was 1. The “Growth Rate” value (HEK-293T; [2]) was 0, the “Growth Rate” value (HEK-293T; [3]) was 0 and the “Growth Rate” value (HEK-293T; [4]) was 0. For the same molecule, the “Growth Rate” value (HEK-293T; [6]) was 0, the “Growth Rate” value (HEK-293T; [7]) was 0 and the “Growth Rate” value (Fibroblast; [1]) was 0. For the same molecule, the “Growth Rate” value (Fibroblast; [8]) was 0, the “Growth Rate” value (Fibroblast; [4]) was 1 and the “Growth Rate” value (Fibroblast; [6]) was 1. For the same molecule, the “Growth Rate” value (Fibroblast; [7]) was 1 and the “Growth Rate” value (Fibroblast; [10]) was 0.
With `C=CC(=O)N1CCC([C@@H]2CCNc3c(C(N)=O)c(-c4ccc(Oc5ccccc5)cc4)nn32)CC1` [ZANUBRUTINIB] the “Growth Rate” value (U2OS; [1]) was 0, the “Growth Rate” value (U2OS; [3]) was 0 and the “Growth Rate” value (U2OS; [4]) was 0. The “Growth Rate” value (U2OS; [6]) was 0, the “Growth Rate” value (U2OS; [7]) was 0 and the “Growth Rate” value (HEK-293T; [1]) was 0. The “Growth Rate” value (HEK-293T; [4]) was 0, the “Growth Rate” value (HEK-293T; [6]) was 0 and the “Growth Rate” value (HEK-293T; [7]) was 0. For the same molecule, the “Growth Rate” value (Fibroblast; [1]) was 1, the “Growth Rate” value (Fibroblast; [2]) was 0 and the “Growth Rate” value (Fibroblast; [3]) was 0. The “Growth Rate” value (Fibroblast; [4]) was 0, the “Growth Rate” value (Fibroblast; [6]) was 0 and the “Growth Rate” value (Fibroblast; [9]) was 1. The “Growth Rate” value (Fibroblast; [7]) was 0 and the “Growth Rate” value (Fibroblast; [10]) was 1.
With `CO[C@H]1CC[C@H](CNc2ccc(S(=O)(=O)NC(=O)c3ccc(N4CCN(CC5=C(c6ccc(Cl)cc6)CC(C)(C)CC5)CC4)cc3Oc3cnc4[nH]ccc4c3)cc2[N+](=O)[O-])CC1` [A-1211212] the “Growth Rate” value (U2OS; [1]) was 0, the “Growth Rate” value (U2OS; [3]) was 1 and the “Growth Rate” value (U2OS; [4]) was 0. For the same molecule, the “Growth Rate” value (U2OS; [5]) was 1, the “Growth Rate” value (U2OS; [6]) was 0 and the “Growth Rate” value (U2OS; [7]) was 0. For the same molecule, the “Growth Rate” value (U2OS; [10]) was 1, the “Growth Rate” value (HEK-293T; [1]) was 0 and the “Growth Rate” value (HEK-293T; [8]) was 1. For the same molecule, the “Growth Rate” value (HEK-293T; [5]) was 1, the “Growth Rate” value (HEK-293T; [6]) was 1 and the “Growth Rate” value (HEK-293T; [7]) was 1. The “Growth Rate” value (HEK-293T; [10]) was 0, the “Growth Rate” value (Fibroblast; [1]) was 0 and the “Growth Rate” value (Fibroblast; [3]) was 0. For the same molecule, the “Growth Rate” value (Fibroblast; [4]) was 0, the “Growth Rate” value (Fibroblast; [6]) was 0 and the “Growth Rate” value (Fibroblast; [7]) was 0.
For `CCC(=N\O)/C(C)=C/c1ccc(F)c(C)c1` [A-226], the “Growth Rate” value (U2OS; [1]) was 0, the “Growth Rate” value (U2OS; [2]) was 1 and the “Growth Rate” value (U2OS; [3]) was 0. For the same molecule, the “Growth Rate” value (U2OS; [4]) was 1, the “Growth Rate” value (U2OS; [6]) was 0 and the “Growth Rate” value (U2OS; [9]) was 1. For the same molecule, the “Growth Rate” value (U2OS; [7]) was 0, the “Growth Rate” value (U2OS; [10]) was 1 and the “Growth Rate” value (HEK-293T; [2]) was 0. For the same molecule, the “Growth Rate” value (HEK-293T; [3]) was 0, the “Growth Rate” value (HEK-293T; [4]) was 0 and the “Growth Rate” value (HEK-293T; [6]) was 0. The “Growth Rate” value (HEK-293T; [7]) was 0, the “Growth Rate” value (Fibroblast; [1]) was 0 and the “Growth Rate” value (Fibroblast; [3]) was 0. For the same molecule, the “Growth Rate” value (Fibroblast; [4]) was 0, the “Growth Rate” value (Fibroblast; [6]) was 0 and the “Growth Rate” value (Fibroblast; [9]) was 1. The “Growth Rate” value (Fibroblast; [7]) was 1.
In the case of `CCC[C@H](Oc1cc(C)c(-n2cc(C(F)(F)F)cn2)c(C)c1)c1ccc(C(=O)NCCC(=O)O)cc1` [PF-06291874], the “Growth Rate” value (U2OS; [8]) is reported as 0, the “Growth Rate” value (U2OS; [4]) is reported as 1 and the “Growth Rate” value (U2OS; [6]) is reported as 0. The “Growth Rate” value (U2OS; [9]) was 1, the “Growth Rate” value (U2OS; [7]) was 1 and the “Growth Rate” value (HEK-293T; [1]) was 1. For the same molecule, the “Growth Rate” value (HEK-293T; [2]) was 0, the “Growth Rate” value (HEK-293T; [3]) was 0 and the “Growth Rate” value (HEK-293T; [4]) was 0. For the same molecule, the “Growth Rate” value (HEK-293T; [6]) was 0, the “Growth Rate” value (HEK-293T; [7]) was 0 and the “Growth Rate” value (Fibroblast; [1]) was 0. For the same molecule, the “Growth Rate” value (Fibroblast; [3]) was 1, the “Growth Rate” value (Fibroblast; [4]) was 0 and the “Growth Rate” value (Fibroblast; [6]) was 0. The “Growth Rate” value (Fibroblast; [7]) was 1.
In the case of `NC(CCP(=O)(O)O)C(=O)O` (racemic), the “Growth Rate” value (U2OS; [1]) is reported as 0, the “Growth Rate” value (U2OS; [8]) is reported as 0 and the “Growth Rate” value (U2OS; [4]) is reported as 1. The “Growth Rate” value (U2OS; [6]) was 1, the “Growth Rate” value (U2OS; [7]) was 1 and the “Growth Rate” value (HEK-293T; [1]) was 0. For the same molecule, the “Growth Rate” value (HEK-293T; [3]) was 1, the “Growth Rate” value (HEK-293T; [4]) was 1 and the “Growth Rate” value (HEK-293T; [6]) was 1. The “Growth Rate” value (HEK-293T; [7]) was 1, the “Growth Rate” value (Fibroblast; [1]) was 0 and the “Growth Rate” value (Fibroblast; [9]) was 1. For the same molecule, the “Growth Rate” value (Fibroblast; [7]) was 1.
